The values below come from ChEMBL document CHEMBL5390317, “Novel Indane-Containing NBTIs with Potent Anti-Gram-Negative Activity and Minimal hERG Inhibition” (ACS Med Chem Lett, 2023).

pIC50: −log10 of the molar value. ≈ marks a conversion by molar mass, not a printed value.

Series [1] deals with Klebsiella pneumoniae. The series can be described thus: Antibacterial activity against Klebsiella pneumoniae ATCC 10031 assessed as inhibition in bacterial growth incubated for 20 to 24 hrs by CLSI based broth microdilution method. It counts as functional. As to conditions: time 20-24 hrs.
The test system of series [2] is Escherichia coli. The series can be described thus: Antibacterial activity against Escherichia coli K-12 BW25113 assessed as inhibition in bacterial growth incubated for 20 to 24 hrs by CLSI based broth microdilution method. The note with it: Escherichia coli, K-12 BW25113, time 20-24 hrs; read-out: MIC. It counts as functional. (Broth dilution looks for growth in wells or tubes with falling amounts of substance.)

Series [3] concerns Klebsiella pneumoniae. The series can be described thus: Antibacterial activity against Klebsiella pneumoniae ATCC 700603 assessed as inhibition in bacterial growth incubated for 20 to 24 hrs by CLSI based broth microdilution method. The series is classed as functional. As to conditions: Klebsiella pneumoniae, ATCC 700603, time 20-24 hrs; read-out: MIC.
Series [4] concerns the target T1, hERG (KCNH2) (Homo sapiens, UniProt Q12809). As to the kind of experiment: Inhibition of hERG potassium channel expressed in CHO cells at 1 uM by electrophysiological patch clamp assay relative to control. It counts as toxicity, cell-based. As to conditions: CHO cells expressing hERG. In general terms: Block of hERG is tested as a sign of cardiac risk.
The target in another series is DNA gyrase (Escherichia coli, UniProt P0AES4+P0AES6). The series can be described thus: Inhibition of Escherichia coli DNA gyrase incubated for 80 mins by Transcreener ADP2 FI assay. It counts as protein-complex assay.
Series [5] has as its target T1, hERG (KCNH2). The series can be described thus: Inhibition of hERG potassium channel expressed in CHO cells at 10 uM by electrophysiological patch clamp assay relative to control. The series is classed as toxicity, cell-based. The note with it: CHO cells expressing hERG.
Series [6] deals with Pseudomonas aeruginosa. The series can be described thus: Antibacterial activity against Pseudomonas aeruginosa ATCC 27853 assessed as inhibition in bacterial growth incubated for 20 to 24 hrs by CLSI based broth microdilution method. The note with it: time 20-24 hrs. It counts as functional.
Series [7] concerns Escherichia coli. As to the kind of experiment: Antibacterial activity against Escherichia coli ATCC 35218 assessed as inhibition in bacterial growth incubated for 20 to 24 hrs by CLSI based broth microdilution method. The series is classed as functional. The note with it: Escherichia coli, ATCC 35218, time 20-24 hrs; read-out: MIC.
For series [8], the system named is Staphylococcus aureus. As to the kind of experiment: Antibacterial activity against Staphylococcus aureus ATCC 29213 assessed as inhibition in bacterial growth incubated for 20 to 24 hrs by CLSI based broth microdilution method. The series is classed as functional. The note with it: Staphylococcus aureus, ATCC 29213; time 20-24 hrs; read-out: MIC.
For series [9], the system named is Staphylococcus aureus. As to the kind of experiment: Antibacterial activity against Staphylococcus aureus ATCC BAA-1556 assessed as inhibition in bacterial growth incubated for 20 to 24 hrs by CLSI based broth microdilution method. The series is classed as functional. The note with it: Staphylococcus aureus, ATCC BAA-1556, time 20-24 hrs; read-out: MIC.
Series [10] is described as follows: Inhibition of Escherichia coli topoisomerase 4 incubated for 120 mins by Transcreener ADP2 FI assay.
The test system of series [11] is Pseudomonas aeruginosa. As to the kind of experiment: Antibacterial activity against Pseudomonas aeruginosa NCTC 13437 assessed as inhibition in bacterial growth incubated for 20 to 24 hrs by CLSI based broth microdilution method. It counts as functional. The note with it: Pseudomonas aeruginosa, NCTC 13437, time 20-24 hrs; read-out: MIC.
Series [12] concerns Acinetobacter baumannii. The series can be described thus: Antibacterial activity against Acinetobacter baumannii ATCC BAA-747 assessed as inhibition in bacterial growth incubated for 20 to 24 hrs by CLSI based broth microdilution method. The series is classed as functional. The note with it: Acinetobacter baumannii, ATCC BAA-747, time 20-24 hrs; read-out: MIC.
The subject of series [13] is Pseudomonas aeruginosa. The series can be described thus: Antibacterial activity against Pseudomonas aeruginosa NCTC 11451 assessed as inhibition in bacterial growth incubated for 20 to 24 hrs by CLSI based broth microdilution method. The series is classed as functional. As to conditions: Pseudomonas aeruginosa, NCTC 11451, time 20-24 hrs; read-out: MIC.
Series [14] deals with Escherichia coli. As to the kind of experiment: Antibacterial activity against Escherichia coli ATCC 25922 assessed as inhibition in bacterial growth incubated for 20 to 24 hrs by CLSI based broth microdilution method. It counts as functional. The note with it: time 20-24 hrs.
Series [15] has as its system Acinetobacter baumannii. The series can be described thus: Antibacterial activity against Acinetobacter baumannii ATCC 51432 assessed as inhibition in bacterial growth incubated for 20 to 24 hrs by CLSI based broth microdilution method. The note with it: Acinetobacter baumannii, ATCC 51432, time 20-24 hrs; read-out: MIC. It counts as functional.
The subject of series [16] is Klebsiella pneumoniae. The series can be described thus: Antibacterial activity against Klebsiella pneumoniae ATCC BAA-1705 assessed as inhibition in bacterial growth incubated for 20 to 24 hrs by CLSI based broth microdilution method. As to conditions: time 20-24 hrs. It counts as functional.
The subject of series [17] is Escherichia coli. The series can be described thus: Antibacterial activity against Escherichia coli K-12 BW25113 deltaTolC assessed as inhibition in bacterial growth incubated for 20 to 24 hrs by CLSI based broth microdilution method. The note with it: time 20-24 hrs. The series is classed as functional.
Series [18] deals with Escherichia coli. As to the kind of experiment: Antibacterial activity against Escherichia coli ATCC BAA-2340 assessed as inhibition in bacterial growth incubated for 20 to 24 hrs by CLSI based broth microdilution method. As to conditions: Escherichia coli, ATCC BAA-2340, time 20-24 hrs; read-out: MIC. The series is classed as functional.
Series [19] concerns the target Voltage-gated inwardly rectifying potassium channel KCNH2 (Homo sapiens, UniProt Q12809). The series can be described thus: (§1) Inhibition of hERG potassium channel expressed in CHO cells by electrophysiological patch clamp assay. It counts as toxicity, cell-based.
For series [20], the target named is T1, hERG (KCNH2). The series is described as §1. It counts as toxicity, cell-based. As to conditions: human, CHO cells expressing hERG.
For series [21], the system named is Acinetobacter baumannii. The series can be described thus: Antibacterial activity against Acinetobacter baumannii ATCC 19606 assessed as inhibition in bacterial growth incubated for 20 to 24 hrs by CLSI based broth microdilution method. It counts as functional. The note with it: time 20-24 hrs.
The subject of series [22] is Klebsiella pneumoniae. As to the kind of experiment: Antibacterial activity against Klebsiella pneumoniae ATCC BAA-2146 assessed as inhibition in bacterial growth incubated for 20 to 24 hrs by CLSI based broth microdilution method. The series is classed as functional. The note with it: Klebsiella pneumoniae, ATCC BAA-2146, time 20-24 hrs; read-out: MIC.

Sequence of Voltage-gated inwardly rectifying potassium channel KCNH2 (Q12809 whole entry): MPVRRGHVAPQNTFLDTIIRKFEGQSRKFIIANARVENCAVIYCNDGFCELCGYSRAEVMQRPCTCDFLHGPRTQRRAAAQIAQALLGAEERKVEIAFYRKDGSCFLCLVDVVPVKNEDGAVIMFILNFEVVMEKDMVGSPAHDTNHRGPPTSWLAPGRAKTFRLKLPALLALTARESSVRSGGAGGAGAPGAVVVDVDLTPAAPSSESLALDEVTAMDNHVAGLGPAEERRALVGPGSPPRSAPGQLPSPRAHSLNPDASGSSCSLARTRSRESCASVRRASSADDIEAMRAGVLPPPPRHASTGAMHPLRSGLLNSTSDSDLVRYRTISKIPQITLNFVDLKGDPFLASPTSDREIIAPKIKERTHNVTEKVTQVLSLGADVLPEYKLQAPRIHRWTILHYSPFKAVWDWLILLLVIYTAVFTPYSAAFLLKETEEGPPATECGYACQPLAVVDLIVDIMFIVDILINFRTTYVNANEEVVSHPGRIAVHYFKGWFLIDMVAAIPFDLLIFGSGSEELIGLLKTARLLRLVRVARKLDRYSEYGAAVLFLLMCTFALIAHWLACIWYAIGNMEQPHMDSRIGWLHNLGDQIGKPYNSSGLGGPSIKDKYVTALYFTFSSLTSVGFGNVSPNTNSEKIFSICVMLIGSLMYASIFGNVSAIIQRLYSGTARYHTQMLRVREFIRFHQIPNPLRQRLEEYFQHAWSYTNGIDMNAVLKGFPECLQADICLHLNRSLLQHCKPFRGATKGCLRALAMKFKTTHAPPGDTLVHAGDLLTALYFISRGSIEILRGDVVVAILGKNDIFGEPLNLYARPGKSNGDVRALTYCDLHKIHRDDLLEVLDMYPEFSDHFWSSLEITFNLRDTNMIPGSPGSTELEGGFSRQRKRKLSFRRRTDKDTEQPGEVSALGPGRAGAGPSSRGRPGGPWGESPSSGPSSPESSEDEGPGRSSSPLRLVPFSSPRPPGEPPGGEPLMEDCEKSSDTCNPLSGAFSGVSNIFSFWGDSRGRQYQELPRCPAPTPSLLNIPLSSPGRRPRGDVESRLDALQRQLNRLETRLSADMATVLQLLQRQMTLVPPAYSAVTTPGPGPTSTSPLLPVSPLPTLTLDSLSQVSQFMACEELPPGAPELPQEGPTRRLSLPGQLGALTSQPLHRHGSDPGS
T1 sequence (Q12809 whole entry): as above

As a reminder, the MIC is the lowest concentration found to suppress growth. Broadly, the inhibition is the relative decrease from the control value, in per cent. Lower therefore signals little suppression. As a reminder, the pIC50 is −log10 of the IC50, conventionally taken in molar units. The low end stands for a large IC50, the high end for a small IC50. By IC20 is commonly meant the concentration needed for an effect of 20%. Low readings indicate an effect from little substance, high ones a need for much substance. As to `N#Cc1cc(OCC2(N)CC2)cc2c1CC(CNCCC1CN(c3ccc4c(n3)NC(=O)CO4)C(=O)O1)C2` (centres undefined), the MIC is not above 0.06 µg/mL in the series with Klebsiella pneumoniae [1]; not above 0.06 µg/mL in the series with Escherichia coli [2]; 1 µg/mL (≈ 1.93 µM) in the series with Klebsiella pneumoniae [3]; 0.25 µg/mL (≈ 0.482 µM) in the series on Pseudomonas aeruginosa [6]; 0.125 µg/mL (≈ 0.241 µM) in the series on Escherichia coli [7]; not above 0.06 µg/mL in the series on Staphylococcus aureus [8]. For the same compound, the MIC in the series with Staphylococcus aureus [9] is not above 0.06 µg/mL; in the series on Pseudomonas aeruginosa [11], 0.5 µg/mL (≈ 0.964 µM); with Acinetobacter baumannii [12], not above 0.06 µg/mL; with Pseudomonas aeruginosa [13], 1 µg/mL (≈ 1.93 µM); with Escherichia coli [14], not above 0.06 µg/mL; in the series on Acinetobacter baumannii [15] it was 2 µg/mL (≈ 3.86 µM). For the same compound, the minimum inhibitory concentration (MIC) in the series with Klebsiella pneumoniae [16] was 1 µg/mL (≈ 1.93 µM); with Escherichia coli [17], not above 0.06 µg/mL; in the series on Escherichia coli [18], not above 0.06 µg/mL; in the series on Acinetobacter baumannii [21], 1 µg/mL (≈ 1.93 µM); with Klebsiella pneumoniae [22] it was 4 µg/mL (≈ 7.71 µM). This compound gave an inhibition at 1 µM against hERG (KCNH2) [4] of less than 1%. The pIC50 against DNA gyrase was 7.46; in series [10], 7.72; in series [19], less than 4.70. Also, 10 µM produced 28% inhibition on hERG (KCNH2) [5]. Moreover, on hERG (KCNH2) [20], the IC20 stood at 6.4 µM.

In the case of `N#CCOc1cc(F)c2c(c1)CC(CNCCC1CN(c3ccc4c(n3)NC(=O)CO4)C(=O)O1)C2` (centres undefined), the minimum inhibitory concentration (MIC) in the series with Klebsiella pneumoniae [1] is not above 0.06 µg/mL; in the series with Escherichia coli [2] it was 0.25 µg/mL (≈ 0.519 µM); with Klebsiella pneumoniae [3] it was 4 µg/mL (≈ 8.31 µM); in the series with Pseudomonas aeruginosa [6], 4 µg/mL (≈ 8.31 µM); with Escherichia coli [7], 0.5 µg/mL (≈ 1.04 µM); in the series with Staphylococcus aureus [8], 0.125 µg/mL (≈ 0.26 µM). Besides, the minimal inhibitory concentration (MIC) came to 0.25 µg/mL (≈ 0.519 µM) with Staphylococcus aureus [9]; 4 µg/mL (≈ 8.31 µM) in the series with Pseudomonas aeruginosa [11]; 0.125 µg/mL (≈ 0.26 µM) in the series with Acinetobacter baumannii [12]; 8 µg/mL (≈ 16.6 µM) in the series on Pseudomonas aeruginosa [13]; 0.5 µg/mL (≈ 1.04 µM) in the series with Escherichia coli [14]; 1 µg/mL (≈ 2.08 µM) with Acinetobacter baumannii [15]. For the same compound, the MIC is 4 µg/mL (≈ 8.31 µM) in the series with Klebsiella pneumoniae [16]; not above 0.06 µg/mL in the series on Escherichia coli [17]; 1 µg/mL (≈ 2.08 µM) in the series with Escherichia coli [18]; 0.5 µg/mL (≈ 1.04 µM) with Acinetobacter baumannii [21]; 8 µg/mL (≈ 16.6 µM) in the series on Klebsiella pneumoniae [22]. The inhibition at 1 µM at hERG (KCNH2) [4] came out at 84%. For the same compound, the pIC50 against DNA gyrase was 7.09; in series [10], 7.51; in series [19] it was 6.64. On hERG (KCNH2) [5], the inhibition at 10 µM came out at 98%. Also, the 20% effect level on hERG (KCNH2) [20] (IC20) was put at 0.066 µM.

In the case of `N#Cc1cc(OCC2CNC2)cc2c1CC(CNCCC1CN(c3ccc4c(n3)NC(=O)CO4)C(=O)O1)C2` (centres undefined), the minimal inhibitory concentration (MIC) in the series on Klebsiella pneumoniae [1] was 0.125 µg/mL (≈ 0.241 µM); with Escherichia coli [2] it was 1 µg/mL (≈ 1.93 µM); with Klebsiella pneumoniae [3] it was 32 µg/mL (≈ 61.7 µM); with Pseudomonas aeruginosa [6], 0.5 µg/mL (≈ 0.964 µM); in the series with Escherichia coli [7], 2 µg/mL (≈ 3.86 µM); in the series with Staphylococcus aureus [8], 0.5 µg/mL (≈ 0.964 µM). Also, the MIC in the series with Staphylococcus aureus [9] was 1 µg/mL (≈ 1.93 µM); with Pseudomonas aeruginosa [11], 4 µg/mL (≈ 7.71 µM); in the series on Acinetobacter baumannii [12], 8 µg/mL (≈ 15.4 µM); in the series with Pseudomonas aeruginosa [13], 4 µg/mL (≈ 7.71 µM); with Escherichia coli [14], 2 µg/mL (≈ 3.86 µM); in the series with Acinetobacter baumannii [15], 16 µg/mL (≈ 30.9 µM). The MIC with Klebsiella pneumoniae [16] was 16 µg/mL (≈ 30.9 µM); in the series on Escherichia coli [17] it was not above 0.06 µg/mL; in the series on Escherichia coli [18], 1 µg/mL (≈ 1.93 µM); with Acinetobacter baumannii [21], 32 µg/mL (≈ 61.7 µM); with Klebsiella pneumoniae [22], 64 µg/mL (≈ 123 µM). For the same compound, the inhibition at 1 µM against hERG (KCNH2) [4] was less than 1%. In addition, the pIC50 against DNA gyrase was 7.42; in series [10] it was 7.72; in series [19], less than 4.70. The same compound had an inhibition at 10 µM at hERG (KCNH2) [5] of less than 1%. Further, the IC20 against hERG (KCNH2) [20] was more than 10 µM.
